# Measurements from the supplement of paper PMC10307832.
# Key:
# Experiment in all cases: relative viability (nuclei count vs DMSO), 5 days (fraction); higher = more cells survive
# [1] = compound: COc1ccc(-c2ccc3c(N4CCOC[C@@H]4C)nc(N4CCOC[C@@H]4C)nc3n2)cc1CO [AZD8055] + CS(=O)(=O)N1CCN(Cc2cc3nc(-c4cccc5[nH]ncc45)nc(N4CCOCC4)c3s2)CC1 [Pictilisib] (partner 1 µM)
# Outline: (§1)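 Relative viability divides the nuclei count in treated wells by that in vehicle wells. Lung cancer cell lines were seeded in 1536-well plates, dosed by pin tool the next day, and fixed and stained after 5 days in one step with final 0.05% Triton X-100, 1% formaldehyde and 1 ug/ml Hoechst. Dosing was a single drug or a fixed anchor-drug dose plus five library-drug doses (not always all listed) in √10 steps, and values are medians of duplicate plates imaged at 4×.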
# [2] = compound: COc1ccc(-c2ccc3c(N4CCOC[C@@H]4C)nc(N4CCOC[C@@H]4C)nc3n2)cc1CO [AZD8055] + CCNC(=O)c1noc(-c2cc(C(C)C)c(O)cc2O)c1-c1ccc(CN2CCOCC2)cc1 [Luminespib] (partner 0.01 µM)
# Outline: as §1
# [3] = compound: COc1ccc(-c2ccc3c(N4CCOC[C@@H]4C)nc(N4CCOC[C@@H]4C)nc3n2)cc1CO [AZD8055] + COc1cccc2cc(-c3nc([C@H]4CC[C@H](C(=O)O)CC4)n4ncnc(N)c34)[nH]c12 [OSI-027] (partner 0.5 µM)
# Outline: as §1
# [4] = compound: COc1ccc(-c2ccc3c(N4CCOC[C@@H]4C)nc(N4CCOC[C@@H]4C)nc3n2)cc1CO [AZD8055] + CC(=O)c1c(C)c2cnc(Nc3ccc(N4CCNCC4)cn3)nc2n(C2CCCC2)c1=O [Palbociclib] (partner 0.5 µM)
# Outline: as §1
Cell Line,relative viability ([1]; first compound 0.01 µM),relative viability ([1]; first compound 0.03162 µM),relative viability ([1]; first compound 0.1 µM),relative viability ([1]; first compound 0.3162 µM),relative viability ([1]; first compound 1 µM),relative viability ([2]; first compound 0.01 µM),relative viability ([2]; first compound 0.03162 µM),relative viability ([2]; first compound 0.1 µM),relative viability ([2]; first compound 0.3162 µM),relative viability ([2]; first compound 1 µM),relative viability ([3]; first compound 0.01 µM),relative viability ([3]; first compound 0.03162 µM),relative viability ([3]; first compound 0.1 µM),relative viability ([3]; first compound 0.3162 µM),relative viability ([3]; first compound 1 µM),relative viability ([4]; first compound 0.01 µM),relative viability ([4]; first compound 0.03162 µM),relative viability ([4]; first compound 0.1 µM),relative viability ([4]; first compound 0.3162 µM),relative viability ([4]; first compound 1 µM)
LCLC-97TM1,0.172,0.107,0.106,0.108,0.176,0.706,0.531,0.365,0.216,0.241,0.502,0.472,0.577,0.422,0.415,0.205,0.164,0.129,0.0928,0.0897
HARA,0.372,0.257,0.198,0.24,0.17,1.44,0.584,0.393,0.112,0.12,0.612,0.641,0.419,0.419,0.249,0.223,0.234,0.216,0.255,0.171
HCC-78,0.216,0.218,0.164,0.178,0.164,,,,,,0.415,0.392,0.326,0.352,0.366,0.492,0.529,0.379,0.437,0.463
NCI-H1666,0.333,0.491,0.347,0.272,0.38,1.06,1.03,0.977,0.772,0.693,0.894,0.905,0.887,0.747,0.717,0.669,0.643,0.624,0.652,0.674
NCI-H2347,0.65,0.601,0.357,0.322,0.428,0.295,0.251,0.367,0.282,0.222,0.408,0.387,0.356,0.346,0.248,0.428,0.44,0.384,0.346,0.352
NCI-H838,0.439,0.212,0.212,0.219,0.257,0.317,0.223,0.234,0.156,0.196,0.377,0.404,0.383,0.262,0.31,0.214,0.156,0.163,0.16,0.17
NCI-H2023,0.215,0.195,0.137,0.12,0.116,0.591,0.411,0.138,0.1,0.128,0.445,0.347,0.266,0.13,0.116,0.264,0.229,0.0912,0.086,0.113
201T,0.623,0.606,0.521,0.495,0.472,0.979,1.01,0.814,0.421,0.42,0.786,0.746,0.676,0.484,0.383,0.354,0.314,0.278,0.251,0.303
NCI-H1915,0.879,0.715,0.851,0.706,0.487,0.777,0.727,0.598,0.5,0.322,0.664,0.551,0.656,0.547,0.459,0.491,0.44,0.425,0.282,0.203
NCI-H2009,0.762,0.441,0.561,0.343,0.333,1.07,1.07,1.16,0.887,0.378,0.72,0.562,0.641,0.338,0.292,0.227,0.156,0.203,0.178,0.149
BEN,0.541,0.391,0.34,0.316,0.254,0.242,0.179,0.305,0.216,0.192,0.308,0.374,0.322,0.291,0.251,0.485,0.472,0.436,0.475,0.413
PC-14,0.587,0.452,0.294,0.184,0.113,0.162,0.17,0.206,0.187,0.212,1.2,0.849,0.497,0.283,0.109,0.698,0.589,0.255,0.108,0.12
SK-MES-1,0.311,0.355,0.299,0.181,0.236,0.371,0.503,0.185,0.182,0.213,0.653,0.629,0.557,0.338,0.22,0.284,0.247,0.24,0.228,0.249
NCI-H727,0.4,0.379,0.28,0.225,0.283,0.375,0.34,0.345,0.345,0.376,0.674,0.604,0.49,0.351,0.409,0.621,0.635,0.572,0.573,0.51
NCI-H1355,0.419,0.374,0.269,0.251,0.238,0.601,0.369,0.234,0.238,0.206,0.393,0.414,0.372,0.314,0.273,0.323,0.284,0.219,0.215,0.218
NCI-H1975,0.257,0.209,0.183,0.179,0.176,0.2,0.155,0.186,0.149,0.147,0.677,0.56,0.375,0.237,0.235,0.712,0.388,0.252,0.151,0.161
LK-2,0.571,0.438,0.368,0.335,0.195,0.154,0.186,0.16,0.173,0.144,0.22,0.242,0.209,0.166,0.186,0.387,0.399,0.347,0.17,0.102
NCI-H661,0.394,0.424,0.322,0.302,0.27,0.971,0.906,0.886,0.424,0.367,0.782,0.668,0.575,0.41,0.341,0.37,0.368,0.303,0.291,0.362
HCC-366,0.0713,0.137,0.132,0.0885,0.0934,,,,,,1.08,1.01,0.845,0.437,0.288,0.311,0.199,0.0939,0.0508,0.0399

Cell Line,relative viability ([1]; first compound 0.01 µM),relative viability ([1]; first compound 0.03162 µM),relative viability ([1]; first compound 0.1 µM),relative viability ([1]; first compound 0.3162 µM),relative viability ([1]; first compound 1 µM),relative viability ([2]; first compound 0.01 µM),relative viability ([2]; first compound 0.03162 µM),relative viability ([2]; first compound 0.1 µM),relative viability ([2]; first compound 0.3162 µM),relative viability ([2]; first compound 1 µM),relative viability ([3]; first compound 0.01 µM),relative viability ([3]; first compound 0.03162 µM),relative viability ([3]; first compound 0.1 µM),relative viability ([3]; first compound 0.3162 µM),relative viability ([3]; first compound 1 µM),relative viability ([4]; first compound 0.01 µM),relative viability ([4]; first compound 0.03162 µM),relative viability ([4]; first compound 0.1 µM),relative viability ([4]; first compound 0.3162 µM),relative viability ([4]; first compound 1 µM)
HOP-62,0.878,0.534,0.582,0.246,0.259,1.08,0.842,0.888,0.634,0.482,0.902,0.795,0.87,0.585,0.453,0.428,0.441,0.414,0.171,0.172
NCI-H1944,0.323,0.302,0.278,0.275,0.287,0.866,0.573,0.483,0.277,0.222,0.418,0.454,0.378,0.297,0.24,0.291,0.264,0.22,0.174,0.152
SW 1573,0.504,0.438,0.38,0.205,0.181,0.121,0.256,0.167,0.103,0.187,0.696,0.528,0.47,0.221,0.18,0.342,0.324,0.159,0.145,0.133
LU99A,0.281,0.18,0.168,0.195,0.22,0.234,0.189,0.185,0.191,0.188,0.297,0.311,0.322,0.264,0.254,0.312,0.285,0.167,0.198,0.2
NCI-H647,0.46,0.329,0.282,0.16,0.149,0.15,0.126,0.125,0.0957,0.121,0.514,0.624,0.568,0.315,0.193,0.348,0.219,0.245,0.102,0.0993
A-427,0.747,0.684,0.677,0.501,0.507,1.3,0.832,0.817,0.482,0.581,0.49,0.491,0.545,0.493,0.434,0.516,0.553,0.467,0.392,0.409
COR-L 105,0.488,0.31,0.388,0.326,0.35,0.733,0.912,0.349,0.3,0.268,0.682,0.702,0.615,0.382,0.383,0.426,0.388,0.374,0.403,0.381
NCI-H441,0.518,0.483,0.375,0.215,0.267,0.347,0.291,0.283,0.22,0.221,0.676,0.647,0.476,0.408,0.339,0.178,0.185,0.179,0.144,0.14
EBC-1,0.303,0.266,0.206,0.197,0.19,,,,,,,,,,,,,,,
NCI-H1648,,,,,,,,,,,0.27,0.235,0.289,0.234,0.296,0.251,0.332,0.201,0.235,0.241
SW 900,,,,,,0.172,0.182,0.17,0.177,0.16,0.592,0.602,0.536,0.311,0.196,0.546,0.559,0.474,0.261,0.289
NCI-H596,0.341,0.363,0.32,0.308,0.337,0.961,0.813,0.44,0.343,0.346,0.685,0.731,0.582,0.413,0.315,,,,,
NCI-H1563,0.651,0.614,0.65,0.61,0.638,0.594,0.536,0.541,0.496,0.49,0.776,0.731,0.681,0.629,0.599,,,,,
NCI-H1299,0.635,0.572,0.363,0.24,0.233,,,,,,,,,,,,,,,
NCI-H522,,,,,,1.19,0.994,0.744,0.581,0.553,0.698,0.757,0.803,0.67,0.632,1.06,0.923,0.717,0.536,0.414
A549,0.395,0.345,0.189,0.123,0.105,,,,,,,,,,,,,,,
IA-LM,0.221,0.217,0.118,0.0814,0.0826,,,,,,,,,,,,,,,
Calu-6,0.826,0.737,0.531,0.4,0.366,,,,,,,,,,,,,,,
